Experiments:
Assay type in all cases: cell-based
[1] = tested on: RH7777 rat hepatoma cells; test: SRB cytotoxicity assay, RH7777 control cell line; settings: SRB assay, 96 h exposure; control cell line
Procedure: (§1) For in vitro cytotoxicity screening, 1000 to 5000 cells were plated into each well of 96-well plates depending on growth rate, and exposed to different concentrations of a test compound for 96 h in three to five replicates. All the compounds were dissolved in dimethyl sulfoxide at 5 to 20 mM, and diluted to desired concentrations in complete culture medium. Cell numbers at the end of the drug treatment were measured by the SRB assay (Gududuru et al., “Synthesis and Biological Evaluation of Novel Cytotoxic Phospholipids for Prostate Cancer,” Bioorg. Med. Chem. Lett. 14:4919-4923 (2004); Rubinstein et al., “Comparison of in vitro Anticancer-Drug-Screening Data Generated with a Tetrazolium Assay Versus a Protein Assay Against a Diverse Panel of Human Tumor Cell Lines,” J. Natl. Cancer Inst. 82:1113-1118 (1990), each of which is hereby incorporated by reference in its entirety). Briefly, the cells were fixed with 10% of trichloroacetic acid, stained with 0.4% SRB, and the absorbances at 540 nm was measured using a plate reader (DYNEX Technologies, Chantilly, Va.). […] A sandwich ELISA (Roche, Mannheim, Germany) utilizing monoclonal antibodies specific for DNA and histones was used to quantify degree of apoptosis induced by the analogs after 72 h exposure. This assay measures DNA-histone complexes (mono- and oligonucleosomes) released into cytoplasm from the nucleus during apoptosis.

[2] = tested on: DU-145 human prostate cancer cells; test: SRB cytotoxicity assay, DU-145; settings: read-out: IC50 DU-145, 96 h exposure, prostate cancer cell line
Procedure: as §1

[3] = tested on: PC-3 human prostate cancer cells; test: SRB cytotoxicity assay, PC-3; settings: 96 h exposure, prostate cancer cell line
Procedure: as §1

[4] = tested on: LNCaP human prostate cancer cells; test: SRB cytotoxicity assay, LNCaP; settings: 96 h exposure, prostate cancer cell line
Procedure: as §1

[5] = tested on: PPC-1 human prostate cancer cells; test: SRB cytotoxicity assay, PPC-1; settings: 96 h exposure, prostate cancer cell line
Procedure: (§2) Dr. Mitchell Steiner at University of Tennessee Health Science Center, kindly provided PPC-1 and TSU-Pr1 cells.
as §1

[6] = tested on: TSU-Pr1 human prostate cancer cells; test: SRB cytotoxicity assay, TSU-Pr1; settings: 96 h exposure, prostate cancer cell line
Procedure: as §2, §1

[7] = tested on: human breast cancer cell line (MCF-7); test: SRB cytotoxicity assay, MCF-7; settings: SRB assay
Procedure: as §1
In vitro cytotoxicity assay was performed by the same sulforhodamine B (SRB) assay (described above). The compounds shown in Table 8 below where tested for activity against the breast cancer and ovarian cancer cell lines.
RH7777 and CV-1 cells were used as negative controls and MCF-7 cell line (breast cancer) was included to examine the selectivity.

CV-1 cells = test: SRB cytotoxicity assay, CV-1 control cell line
Procedure: For in vitro cytotoxicity screening, 1000 to 5000 cells were plated into each well of 96-well plates depending on growth rate, and exposed to different concentrations of a test compound for 96 h in three to five replicates. All the compounds were dissolved in dimethyl sulfoxide at 5 to 20 mM, and diluted to desired concentrations in complete culture medium. Cell numbers at the end of the drug treatment were measured by the SRB assay (Gududuru et al., “Synthesis and Biological Evaluation of Novel Cytotoxic Phospholipids for Prostate Cancer,” Bioorg. Med. Chem. Lett. 14:4919-4923 (2004); Rubinstein et al., “Comparison of in vitro Anticancer-Drug-Screening Data Generated with a Tetrazolium Assay Versus a Protein Assay Against a Diverse Panel of Human Tumor Cell Lines,” J. Natl. Cancer Inst. 82:1113-1118 (1990), each of which is hereby incorporated by reference in its entirety). Briefly, the cells were fixed with 10% of trichloroacetic acid, stained with 0.4% SRB, and the absorbances at 540 nm was measured using a plate reader (DYNEX Technologies, Chantilly, Va.). […] A sandwich ELISA (Roche, Mannheim, Germany) utilizing monoclonal antibodies specific for DNA and histones was used to quantify degree of apoptosis induced by the analogs after 72 h exposure. This assay measures DNA-histone complexes (mono- and oligonucleosomes) released into cytoplasm from the nucleus during apoptosis. RH7777 cells were employed because of nonspecific cytotoxicity of compound 4 in receptor-negative cells as well as receptor-positive prostate cancer cells.
RH7777 and CV-1 cells were used as negative controls and MCF-7 cell line (breast cancer) was included to examine the selectivity. 5-Fluorouracil was used as reference drug.

[8] = tested on: five human prostate cancer cell lines (DU-145, PC-3, LNCaP, PPC-1, and TSU-Pr1); test: SRB assay, statements on the panel of prostate cancer cell lines
Procedure: Cell numbers at the end of the drug treatment were measured by the SRB assay (Gududuru et al., “Synthesis and Biological Evaluation of Novel Cytotoxic Phospholipids for Prostate Cancer,” Bioorg. Med. Chem. Lett. 14:4919-4923 (2004); Rubinstein et al., “Comparison of in vitro Anticancer-Drug-Screening Data Generated with a Tetrazolium Assay Versus a Protein Assay Against a Diverse Panel of Human Tumor Cell Lines,” J. Natl. Cancer Inst. 82:1113-1118 (1990), each of which is hereby incorporated by reference in its entirety). Briefly, the cells were fixed with 10% of trichloroacetic acid, stained with 0.4% SRB, and the absorbances at 540 nm was measured using a plate reader (DYNEX Technologies, Chantilly, Va.). […] A sandwich ELISA (Roche, Mannheim, Germany) utilizing monoclonal antibodies specific for DNA and histones was used to quantify degree of apoptosis induced by the analogs after 72 h exposure. This assay measures DNA-histone complexes (mono- and oligonucleosomes) released into cytoplasm from the nucleus during apoptosis. […] EDG-ology of Liver Injury,” Biochimica et Biophysica ACT 1582:251-256 (2002), which is hereby incorporated by reference in its entirety) was also utilized to understand whether the antiproliferative activity of these derivatives is mediated through inhibition of LPL receptors.

Measured: IC50

NCCCCNCCCNC(=O)C(N)CO (stereo not drawn) [Compound 215]
> 100 µM: all assays above

NCCCCNC(=O)C(N)CO (stereo not drawn) [Compound 214]
> 100 µM: all assays above

COc1cc(C2NC(C(=O)NCCCCN)CS2)cc(OC)c1OC (mixture of isomers) [Compound 222]
> 100 µM: all assays above

NCCCCNC(=O)CN1C(=O)CSC1c1ccccc1 (stereo not drawn) [Compound 218]
> 100 µM: all assays above

NCCCCNCCCNC(=O)CN1C(=O)CSC1c1ccccc1 (stereo not drawn) [Compound 219]
> 100 µM: all assays above

COc1cc(C2NC(C(=O)NCCCNCCCCN)CS2)cc(OC)c1OC (mixture of isomers) [Compound 223]
> 100 µM: all assays above

From patent US7662842B2, “Thiazolidinone amides, thiazolidine carboxylic acid amides, and serine amides, including polyamine conjugates thereof, as selective anti-cancer agents” (Ohio State Univesity Research Foundation, priority 2003, dated 2010)
